Measurements reported in publication PMC5113775, “Mirror‐Image Packing Provides a Molecular Basis for the Nanomolar Equipotency of Enantiomers of an Experimental Herbicide” (Angewandte Chemie (International Ed. in English), 2016).

Tests used:
[1] = biological target: T1, At ΔN IGPD2 construct B (Arabidopsis thaliana, UniProt O23346); experiment: in vitro enzyme inhibition assay; crystal structure; type: biochemical
T1 construct: gene HISN5B; N-terminally truncated (delta-N) construct B, shorter than construct A; borders only in supplement; Mn2+ enzyme; EC 4.2.1.19

[2] = biological target: T2, At ΔN IGPD2 construct A (Arabidopsis thaliana, UniProt O23346); experiment: crystal structure, […] Å; type: binding; settings: active site, two manganese ions; racemate
T2 construct: gene HISN5B; N-terminally truncated (delta-N) construct A, longer than construct B; borders only in supplement
T2 sequence (O23346 53-272, stated change not applied): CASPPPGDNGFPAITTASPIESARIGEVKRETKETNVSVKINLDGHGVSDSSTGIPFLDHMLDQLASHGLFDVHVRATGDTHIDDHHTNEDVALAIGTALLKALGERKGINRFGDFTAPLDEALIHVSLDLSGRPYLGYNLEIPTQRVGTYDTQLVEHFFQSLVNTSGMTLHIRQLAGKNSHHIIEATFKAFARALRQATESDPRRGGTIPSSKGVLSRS

T1 sequence (O23346 69-272, stated change not applied): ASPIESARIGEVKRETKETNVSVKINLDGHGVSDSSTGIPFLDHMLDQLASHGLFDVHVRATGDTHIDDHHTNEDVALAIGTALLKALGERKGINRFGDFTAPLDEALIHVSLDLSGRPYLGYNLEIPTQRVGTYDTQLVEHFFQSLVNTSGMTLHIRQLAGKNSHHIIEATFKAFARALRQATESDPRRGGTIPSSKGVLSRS

SMILES | Ki [1] [nM] | crystal structure, 1.85 Å [2]
O=P(O)(O)C[C@H](O)Cn1cncn1 [(R)‐C348, 2‐hydroxy‐3‐(1,2,4‐triazol‐1‐yl) propylphosphonate] | 15 ± 5 | 
O=P(O)(O)C[C@@H](O)Cn1cncn1 [(S)‐C348, 2‐hydroxy‐3‐(1,2,4‐triazol‐1‐yl) propylphosphonate] | 25 ± 3 | 
O=P(O)(O)CC(O)Cn1cncn1 (racemic) [C348, 2‐hydroxy‐3‐(1,2,4‐triazol‐1‐yl) propylphosphonate] |  | grown in the presence of a racemate of C348 and the structure
